# From patent publication US20050153033A1, “Lactic acid bacteria for the treatment of food” (priority 2003, published 2005)
# Test system: C. maltaromaticum strains (CB1, CB2, CB3, LV17, UAL26, ATCC 35586 and ATCC43225)
# Assay: Antibiotic resistance, overall statement for the strains tested
# Type: cell-based, Carnobacterium maltaromaticum
# Conditions: overall statement on Table 3
# Text: The strains specified in this GRAS document (e.g., Carnobacterium maltaromaticum strains CB1, CB2, CB3, LV17, UAL26, ATCC 35586 AND ATCC43225) have been tested for their resistance to 27 antibiotics (Table 3; Griffiths Labs, 2004).
row,Compound,"Sensitivity of the C. maltaromaticum strains tested, overall"
1,O=C(N[C@H](CO)[C@H](O)c1ccc([N+](=O)[O-])cc1)C(Cl)Cl [Chloramphenicol],sensitive
2,O=C(O)c1cn(C2CC2)c2cc(N3CCNCC3)c(F)cc2c1=O [Ciprofloxacin],sensitive
3,CC[C@H]1OC(=O)[C@H](C)[C@@H](O[C@H]2C[C@@](C)(OC)[C@@H](O)[C@H](C)O2)[C@H](C)[C@@H](O[C@@H]2O[C@H](C)C[C@H](N(C)C)[C@H]2O)[C@](C)(O)C[C@@H](C)C(=O)[C@H](C)[C@@H](O)[C@]1(C)O [Erythromycin],sensitive
4,CCN[C@@H]1C[C@H](N)[C@@H](O[C@H]2OC(CN)=CC[C@H]2N)[C@H](O)[C@H]1O[C@H]1OC[C@](C)(O)[C@H](NC)[C@H]1O [Netilmicin],sensitive
5,CO[C@H]1/C=C/O[C@@]2(C)Oc3c(C)c(O)c4c(O)c(c(/C=N/N5CCN(C)CC5)c(O)c4c3C2=O)NC(=O)/C(C)=C\C=C\[C@H](C)[C@H](O)[C@@H](C)[C@@H](O)[C@@H](C)[C@H](OC(C)=O)[C@@H]1C [Rifampin],sensitive
6,NC[C@H]1O[C@H](O[C@H]2[C@H](O)[C@@H](O[C@H]3O[C@H](CO)[C@@H](O)[C@H](N)[C@H]3O)[C@H](N)C[C@@H]2N)[C@H](N)C[C@@H]1O [Tobramycin],sensitive
7,Amoxicillin + clavulanic acid,sensitive
8,Gentamicin,sensitive
